Measurements: ChEMBL document CHEMBL1201862, “PubChem BioAssay data set” (2004)
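Tested at 5 concentrations; 48 h exposure; 96-well plates; endpoints linearly interpolated, else capped at highest concentration. GI50 is the concentration that inhibits growth by half.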 The source made the active and inactive calls. No stated cut-off is given here; in the data, active = GI50 up to about 1.1 µM and inactive = higher.

Legend:
Experiment in all cases: growth of human tumour cells (NCI), 48 h
SNB-75 = test system: SNB-75
SK-MEL-5 = test system: SK-MEL-5
SK-OV-3 = test system: SK-OV-3
UACC-62 = test system: UACC-62
786-0 = test system: 786-0
KM12 = test system: KM12
LOX IMVI = test system: LOX IMVI
SF-295 = test system: SF-295
A498 = test system: A498
UACC-257 = test system: UACC-257
SN12C = test system: SN12C
RPMI-8226 = test system: RPMI-8226
K562 = test system: K562
HT-29 = test system: HT-29
SNB-19 = test system: SNB-19
NCI-H522 = test system: NCI-H522
CAKI-1 = test system: CAKI-1
NCI-H23 = test system: NCI-H23
Hs-578T = test system: Hs-578T

Measured: GI50

C1COCCOP2(N3CC3)=NP(N3CC3)(=NP(N3CC3)(N3CC3)=N2)OCCOCCO1 (stereo unspecified)
inactive: SNB-75 > 100 µM | SK-MEL-5 > 100 µM | SK-OV-3 > 100 µM | UACC-62 > 100 µM | 786-0 > 100 µM | KM12 > 100 µM | LOX IMVI 25.4 µM | SF-295 > 100 µM | A498 > 100 µM | UACC-257 > 100 µM | SN12C > 100 µM | RPMI-8226 > 100 µM | K562 > 100 µM | HT-29 > 100 µM | SNB-19 > 100 µM | NCI-H522 > 100 µM | CAKI-1 > 100 µM | NCI-H23 > 100 µM | Hs-578T > 100 µM

CC(=O)NNc1nc(C)c(C(=O)/C=C/C=C/c2ccccc2)s1
inactive: SNB-75 > 100 µM | SK-MEL-5 > 100 µM | SK-OV-3 > 100 µM | UACC-62 > 100 µM | 786-0 62.7 µM | KM12 29.6 µM | LOX IMVI > 100 µM | SF-295 > 100 µM | A498 > 100 µM | UACC-257 66.7 µM | SN12C > 100 µM | RPMI-8226 76 µM | HT-29 > 100 µM | SNB-19 > 100 µM | NCI-H522 61.9 µM | CAKI-1 > 100 µM | NCI-H23 > 100 µM | Hs-578T > 100 µM

Oc1nc(S)nc2nc3c4cccnc4c4ccccc4c3nc12
inactive: SNB-75 48.4 µM | SK-MEL-5 > 100 µM | SK-OV-3 > 100 µM | UACC-62 > 100 µM | 786-0 > 100 µM | KM12 79.8 µM | SF-295 > 100 µM | A498 > 100 µM | UACC-257 > 100 µM | SN12C > 100 µM | RPMI-8226 45.8 µM | HT-29 > 100 µM | SNB-19 > 100 µM | NCI-H522 86.3 µM | CAKI-1 > 100 µM | NCI-H23 > 100 µM | Hs-578T > 100 µM

Cc1ccc(-n2cc(-c3ccc(Cl)cc3)c(C#N)c2N)cc1
inactive: SNB-75 20.3 µM | SK-MEL-5 16.1 µM | SK-OV-3 20.7 µM | UACC-62 15.1 µM | 786-0 15.3 µM | LOX IMVI 15 µM | SF-295 17.5 µM | A498 18.4 µM | UACC-257 14.8 µM | SN12C 14.8 µM | K562 16.6 µM | HT-29 14 µM | SNB-19 17.3 µM | NCI-H522 12.1 µM | CAKI-1 21.2 µM | NCI-H23 15.7 µM | Hs-578T 2.38 µM

CC(C)(C)OC(=O)N1C/C=C\C(=O)C2(OCCO2)c2ccccc21
inactive: SNB-75 28.2 µM | SK-MEL-5 16.5 µM | SK-OV-3 37.3 µM | 786-0 23.9 µM | KM12 31.6 µM | LOX IMVI 16.7 µM | SF-295 26.4 µM | A498 > 100 µM | UACC-257 20.8 µM | SN12C 26.5 µM | RPMI-8226 20.4 µM | K562 22 µM | HT-29 19.2 µM | SNB-19 35.5 µM | NCI-H522 24 µM | CAKI-1 33.7 µM | NCI-H23 36.1 µM | Hs-578T 45 µM

CCOC(=O)C1CCCCN1C(=O)Cc1c[nH]c2ccccc12 (stereo unspecified)
inactive: SNB-75 40 µM | SK-OV-3 > 100 µM | UACC-62 45.4 µM | 786-0 > 100 µM | KM12 41.3 µM | LOX IMVI 59.4 µM | SF-295 66.2 µM | A498 33.9 µM | UACC-257 79.3 µM | SN12C > 100 µM | RPMI-8226 20 µM | K562 68.9 µM | HT-29 72.9 µM | SNB-19 > 100 µM | NCI-H522 31.4 µM | CAKI-1 69.7 µM | NCI-H23 80.2 µM | Hs-578T 24.8 µM

Nc1sccc1S(=O)(=O)c1ccsc1N
inactive: SNB-75 > 100 µM | SK-MEL-5 > 100 µM | SK-OV-3 > 100 µM | UACC-62 > 100 µM | 786-0 > 100 µM | KM12 > 100 µM | LOX IMVI > 100 µM | SF-295 > 100 µM | A498 > 100 µM | UACC-257 > 100 µM | SN12C > 100 µM | RPMI-8226 > 100 µM | HT-29 > 100 µM | SNB-19 > 100 µM | NCI-H522 > 100 µM | CAKI-1 > 100 µM | NCI-H23 > 100 µM | Hs-578T > 100 µM

Cc1ccc(C(=O)/C=C/N2CCN(c3cccc(C(F)(F)F)c3)CC2)cc1
inactive: SNB-75 16.9 µM | SK-MEL-5 14.9 µM | SK-OV-3 35.1 µM | UACC-62 19.3 µM | 786-0 18.2 µM | KM12 18.7 µM | SF-295 17.5 µM | A498 15.8 µM | UACC-257 16.4 µM | SN12C 18.5 µM | RPMI-8226 31.9 µM | K562 18.7 µM | HT-29 17.9 µM | SNB-19 30.1 µM | NCI-H522 17.5 µM | CAKI-1 17.8 µM | NCI-H23 16.8 µM | Hs-578T 24 µM

O=C1C=C(c2ccccc2)O/C1=C/C(=O)c1ccc(Cl)cc1
inactive: SNB-75 10.6 µM | SK-MEL-5 16.7 µM | SK-OV-3 36.1 µM | UACC-62 14 µM | 786-0 15.9 µM | KM12 20.8 µM | LOX IMVI 13.3 µM | A498 23.4 µM | UACC-257 20.7 µM | SN12C 16 µM | RPMI-8226 3.33 µM | K562 8.13 µM | HT-29 18.2 µM | SNB-19 35.5 µM | NCI-H522 11.1 µM | CAKI-1 14 µM | NCI-H23 > 10 µM | Hs-578T 22.1 µM

COc1ccc(S(=O)(=O)O)cc1-n1nc(C(=O)Nc2ccccc2)n[n+]1-c1cc(S(=O)(=O)[O-])ccc1OC
inactive: SNB-75 > 100 µM | SK-MEL-5 > 100 µM | SK-OV-3 > 100 µM | UACC-62 > 100 µM | 786-0 > 100 µM | KM12 > 100 µM | SF-295 > 100 µM | A498 > 100 µM | SN12C > 100 µM | RPMI-8226 > 100 µM | K562 > 100 µM | HT-29 > 100 µM | SNB-19 > 100 µM | NCI-H522 > 100 µM | CAKI-1 > 100 µM | NCI-H23 > 100 µM | Hs-578T > 100 µM

CCN(CC)CCNc1ccc2ncn3c4c(OC)ccc(O)c4c(=O)c1c23
inactive: SNB-75 46.3 µM | SK-MEL-5 9.51 µM | SK-OV-3 66.2 µM | UACC-62 35.7 µM | 786-0 8.93 µM | KM12 8.17 µM | SF-295 16.6 µM | A498 10 µM | UACC-257 > 100 µM | SN12C 4.82 µM | RPMI-8226 4.21 µM | K562 8.13 µM | HT-29 7.4 µM | SNB-19 19.6 µM | NCI-H522 1.41 µM | CAKI-1 32.1 µM | NCI-H23 21.8 µM | Hs-578T 92.5 µM
